Assay results as given in US20220185811A1, “FGFR4 KINASE INHIBITOR AND PREPARATION METHOD THEREFOR AND USE THEREOF” (SHOUYAO HOLDINGS (BEIJING) CO., LTD., priority 2019, published 2022).
Where two headings read alike, the source gives them in different places.

How the values were obtained:
FGFR-4 kinase = FGFR-4 kinase (Homo sapiens, UniProt P22455); assay: FGFR-4 kinase activity, homogeneous time-resolved fluorescence (HTRF) method; type: biochemical; details: ATP 25 μM, FGFR-4 kinase 1 nM, read-out: FGFR4 IC50
Protocol: 1. In vitro determination of the protein activity of compounds: The FGFR-4 kinase activity detection platform was established by the homogeneous time-resolved fluorescence (HTRF) method, and the activity of the compound was determined. 1000 μM compounds were subjected to 3-fold gradient dilution in 100% DMSO 11 times (12 concentrations in total), 4 μL diluent from each concentration was added to 96 μL of reaction buffer (50 mM HEPES, pH 7.4, 5 mM MnCl2, 0.1 mM NaVO3, 0.001% Tween-20, 0.01% BAS, 1 mM DTT) and mixed well, as a 4* compound (final concentration of 0.017 nM-1000 nM) for later use. 2 * FGFR-4 kinase (final concentration of 1 nM) was formulated using reaction buffer and 4*substrate (ATP+TK peptide) (TK peptide, HTRF® KinEASETM-TK, purchased from Cisbio, TK peptide, final concentration of 1 μM, ATP final concentration of 25 μ M) was formulated using reaction buffer. 2.5 μL of 4*compound and then 5 μL of 2 * FGFR-4 kinase were added to a 384-well plate (OptiPlate-384, purchased from PerkinElmer), the mixture was mixed by centrifugation, and 2.5 μL of 4 * substrate mixture was added to start the reaction (total reaction volume of 10 µL). The 384-well plate was placed in an incubator 23° C. and stirred for 60 min before the reaction was stopped by the addition of 5 μL of Eu^3+cryptate-labeled anti-phosphotyrosine antibody (TRF® KinEASE™-TK, purchased from Cisbio) and 5 μL of Streptavidin-XL-665 (HTRF® KinEASE™-TK, purchased from Cisbio). After incubation in the incubator for 1 h, fluorescence values (excitation at 320 nm, detecting emitted light at 665 nm and 620 nm, and a ratio of the two as enzyme activity) were read on Envision (purchased from PerkinElmer). The enzyme activity of each compound was measured at 12 concentrations, and the ICso value of the compound was calculated using GraphPad Prism 5.0 software.
The FGFR-4 kinase activity detection platform was established by homogeneous time-resolved fluorescence (HTRF) method, and the activity of compound was determined. 1000 μM compounds were subjected to 3-fold gradient dilution in 100% DMSO 11 times (12 concentrations in total), 4 μL of diluent from each concentration was added to 96 μL of reaction buffer (50 mM HEPES, pH 7.4, 5 mM MnCl2, 0.1 mM NaVO3, 0.001% Tween-20, 0.01% BAS, 1 mM DTT) and mixed well, as a 4* compound (final concentration of 0.017 nM-1000 nM) for later use. 2 * FGFR-4 kinase (final concentration of 1 nM) was formulated using reaction buffer and 4*substrate (ATP+TK peptide)(TK peptide, HTRF® KinEASE™-TK, purchased from Cisbio, TK peptide, final concentration of 1 μM, ATP final concentration of 25 μM) was formulated using reaction buffer. 2.5 μL of 4 * compound and then 5 μL of 2 * FGFR-4 kinase were added to a 384-well plate (OptiPlate-384, purchased from PerkinElmer), the mixture was mixed by centrifugation, and 2.5 μL of 4 * substrate mixture was added to start the reaction (total reaction volume of 10 μL). The 384-well plate was placed in an incubator 23° C. and stirred for 60 min before the reaction was stopped by the addition of 5 μL of Eu^3+cryptate-labled anti-phosphotyrosine antibody (TRF® KinEASE™-TK, purchased from Cisbio) and 5 μL of Streptavidin-XL-665 (HTRF® KinEASE™-TK, purchased from Cisbio). After incubation in the incubator for 1 h, fluorescence values (excitation at 320 nm, detecting emitted light at 665 nm and 620 nm, and a ratio of the two as enzyme activity) were read on Envision (purchased from PerkinElmer). The enzyme activity of each compopund was measured at 12 concentrations, and the ICso value of the compound was calculated using GraphPad prism 5.0 software.

[1] = test system: Human hepatoma cells Hep3b; assay: Cell proliferation inhibition, Cell Titer-Glo; type: cell-based; details: 72 h
Protocol: 2. Determination of cell proliferation activity of compounds:
Cell Titer-Glo ® detection reagent from Promega was used to establish the suspension cell proliferation inhibition screening method. Human hepatoma cells Hep3b (Xiehe Cell Research Center) were cultured in 25 cm^2 or 75 cm^2 plastic tissue culture flasks (Corning®) filled with MEM (Gibco®) medium supplemented with 10% fetal bovine serum (Hyclone®) under 37° C., 95% air and 5% CO2, and subcultured 2-3 times a week.
(§1) Hep3b cells were seeded in a 96-well cell culture plate (Corning®) at a density of 3×10^3 cells/well, […], and cultured under 37° C., 95% air, and 5% CO2. After 24 h the test compound was added: 10 mM compounds (dissolved in DMSO) were subjected to 3-fold gradient dilution in DMSO , […] of diluent from each concentration was added to […] of serum-free medium, and finally […] of compound diluted in the medium was added to the plate seeded with cells. The final concentration of DMSO in the cell culture medium was 0.1% and the final concentration of the test compound was 0.3 nM-[…]. The above cells were incubated for 3 days under 37° C.
After 3 days, the cell viability assay was performed by the Cell Titer-Glo (Promega) kit, and finally, the inhibitory concentration 50% of the compound on cell proliferation, i.e. the IC 50 value, was calculated by the GraphPad Prism 5.0 program.
as §1, with “DMSO,” for “DMSO ,”, “finally,” for “finally”, “of” for “of the”
After 3 days, the cell viability assay was performed by the Cell Titer-Glo (Promega) kit, and finally the inhibitory concentration 50% of the compound on cell proliferation, i.e. the IC 50 value, was calculated by the GraphPad Prism 5.0 program.

[2] = Hep3B, Table 1, 3 days incubation
[3] = Hep3B, Table 2, 3 days incubation

FGFR-4 kinase, sequence (P22455 22-802): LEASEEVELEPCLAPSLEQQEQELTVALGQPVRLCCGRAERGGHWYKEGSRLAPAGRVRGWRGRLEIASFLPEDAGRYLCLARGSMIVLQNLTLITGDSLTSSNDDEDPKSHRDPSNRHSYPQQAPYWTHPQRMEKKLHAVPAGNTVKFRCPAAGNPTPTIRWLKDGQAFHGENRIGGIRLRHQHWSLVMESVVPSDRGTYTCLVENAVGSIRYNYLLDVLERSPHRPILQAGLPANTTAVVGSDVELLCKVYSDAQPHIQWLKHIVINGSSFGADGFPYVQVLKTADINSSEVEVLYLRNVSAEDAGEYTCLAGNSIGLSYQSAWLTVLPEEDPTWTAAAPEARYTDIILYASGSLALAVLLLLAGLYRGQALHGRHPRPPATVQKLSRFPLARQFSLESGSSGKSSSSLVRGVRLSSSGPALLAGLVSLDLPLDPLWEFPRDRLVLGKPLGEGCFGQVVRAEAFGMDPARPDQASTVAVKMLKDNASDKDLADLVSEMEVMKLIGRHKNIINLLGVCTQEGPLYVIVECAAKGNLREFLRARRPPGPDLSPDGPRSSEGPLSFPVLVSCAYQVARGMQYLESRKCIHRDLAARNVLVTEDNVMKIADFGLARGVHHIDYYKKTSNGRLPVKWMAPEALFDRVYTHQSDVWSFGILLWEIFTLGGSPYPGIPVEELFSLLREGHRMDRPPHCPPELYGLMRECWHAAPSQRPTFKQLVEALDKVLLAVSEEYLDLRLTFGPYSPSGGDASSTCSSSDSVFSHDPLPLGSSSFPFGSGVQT

Row | Structure (SMILES) | IC50 (FGFR-4 kinase; Table 1) [nM] | IC50 [1, 2] [nM] | IC50 (FGFR-4 kinase; Table 2) [nM] | IC50 ([1]; Table 2, 3 days incubation) [nM] | IC50 [1, 3] [nM]
1 | CC#CC(=O)Nc1cc(-c2cc3c(cn2)cc(-c2c(Cl)c(OC)cc(OC)c2Cl)c2nccn23)c(OC)cc1N1CCOCC1 [Example 29, N-(5-(4-(2,6-dichloro-3,5-dimethoxyphenyl)imidazo[1,2-a][1,6]naphthyridin-8-yl)-4-methoxy-2-morpholinophenyl)but-2-ynamide] | 2.17 | 34.4 | – | – | –
2 | CC#CC(=O)Nc1cc(-c2cc3c(cn2)cc(-c2c(Cl)c(OC)cc(OC)c2Cl)c2nccn23)c(OC)cc1N1CCS(=O)(=O)CC1 [Example 30, N-(5-(4-(2,6-dichloro-3,5-dimethoxyphenyl)imidazo[1,2-a][1,6]naphthyridin-8-yl)-2-(1,1-dioxidothiomorpholino)-4-methoxyphenyl)but-2-ynamide] | 0.947 | 46.3 | – | – | –
3 | CC#CC(=O)Nc1cc(-c2cc3c(cn2)cc(-c2c(Cl)c(OC)cc(OC)c2Cl)c2nccn23)c(OC)cc1N1CCC(N2CCOCC2)CC1 [Example 31, N-(5-(4-(2,6-dichloro-3,5-dimethoxyphenyl)imidazo[1,2-a][1,6]naphthyridin-8-yl)-4-methoxy-2-(4-morpholinopiperidin-1-yl)phenyl)but-2-ynamide] | 3.63 | 81.3 | – | – | –
4 | CC#CC(=O)Nc1cc(-c2cc3c(cn2)cc(-c2c(Cl)c(OC)cc(OC)c2Cl)c2nccn23)c(OC)cc1N1CCN(C)C2(CC2)C1 [Example 32, N-(5-(4-(2,6-dichloro-3,5-dimethoxyphenyl)imidazo[1,2-a][1,6]naphthyridin-8-yl)-4-methoxy-2-(4-methyl-4,7-diazaspiro[2.5]octan-7-yl)phenyl)but-2-ynamide] | 6.1 | 76.8 | – | – | –
5 | C=CC(=O)Nc1cc(-c2cc3c(cn2)cc(-c2c(Cl)c(OC)cc(OC)c2Cl)c2nccn23)c(OC)cc1N1CCN(C(C)=O)CC1 [Example 37, N-(2-(4-acetylpiperazin-1-yl)-5-(4-(2,6-dichloro-3,5-dimethoxyphenyl)imidazo[1,2-a][1,6]naphthyridin-8-yl)-4-methoxyphenyl)acrylamide] | 2.16 | 107 | – | – | –
6 | C=CC(=O)Nc1cc(-c2cc3c(cn2)cc(-c2c(Cl)c(OC)cc(OC)c2Cl)c2nccn23)c(OC)cc1N1CC2CCC(C1)O2 [Example 44, N-(2-(8-oxa-3-azabicyclo[3 .2.1]octan-3-yl)-5-(4-(2,6-dichloro-3,5-dimethoxyphenyl)imidazo[1,2-a][1,6]naphthyridin-8-yl)-4-methoxyphenyl)acrylamide] | 5.03 | 113 | – | – | –
7 | C=CC(=O)Nc1cc(-c2cc3c(cn2)cc(-c2c(Cl)c(OC)cc(OC)c2Cl)c2nccn23)c(OC)cc1N1CCOCC1 [Example 54, N-(5-(4-(2,6-dichloro-3,5-dimethoxyphenyl)imidazo[1,2-a][1,6]naphthyridin-8-yl)-4-methoxy-2-morpholinophenyl)acrylamide] | – | – | 0.7 | 21.5 | –
8 | C=CC(=O)Nc1cc(-c2cc3c(cn2)cc(-c2c(Cl)c(OC)cc(OC)c2Cl)c2nccn23)c(OC)cc1N1CCN(C#N)CC1 [Example 60, N-(2-(4-cyanopiperazin-1-yl)-5-(4-(2,6-dichloro-3,5-dimethoxyphenyl)imidazo[1,2-a][1,6]naphthyridin-8-yl)-4-methoxyphenyl)acrylamide] | – | – | 0.9 | – | 95.2
9 | C=CC(=O)Nc1cc(-c2cc3c(cn2)cc(-c2c(Cl)c(OC)cc(OC)c2Cl)c2nccn23)c(OC)cc1N1CCC(N2CCN(C)CC2)CC1 [Example 64, N-(5-(4-(2,6-dichloro-3,5-dimethoxyphenyl)imidazo[1,2-a][1,6]naphthyridin-8-yl)-4-methoxy-2-(4-(4-methylpiperazin-1-yl)piperidin-1-yl)phenyl)acrylamide] | – | – | 0.3 | – | 69.7
10 | C=CC(=O)Nc1cc(-c2cc3c(cn2)cc(-c2c(Cl)c(OC)cc(OC)c2Cl)c2nccn23)c(OC)cc1N1CCN(C2COC2)CC1 [Example 65, N-(5-(4-(2,6-dichloro-3,5-dimethoxyphenyl)imidazo[1,2-a][1,6]naphthyridin-8-yl)-4-methoxy-2-(4-(oxetan-3-yl)piperazin-1-yl)phenyl)acrylamide] | – | – | 0.9 | – | 22.3
11 | C=CC(=O)Nc1cc(-c2cc3c(cn2)cc(-c2c(Cl)c(OC)cc(OC)c2Cl)c2nccn23)c(OC)cc1N1CCC(N(C)C)CC1 [Example 67] | – | – | 0.4 | – | 81.3
